Source: patent US20020187514A1 (priority 1999, published 2002)

Columns and labels:
Vasopressin 1 = molecular target: T1, Vasopressin 1 (Rattus norvegicus, UniProt P30560); assay: biochemical; type: binding; conditions: read-out: Pass 1 (10^−5 M) % Inhibition
T1 construct: no other source notation after assay name denotes animal cell or animal tissue source; from tissue

Testosterone (cytosolic) = Testosterone (cytosolic) (UniProt P15207); type: binding
[1] = tested on: Nicotinic (a-bungarotoxin insensitive); type: binding; conditions: 10^−5 M
[2] = tested on: Glutamate, NMDA, Phencyclidine Site; assay: Glutamate, NMDA, Phencyclidine Site; [3H]TCP; type: binding; conditions: 10^−5 M
Vasopressin, V1A = Vasopressin, V1A (Homo sapiens, UniProt P37288); assay: Vasopressin, V1A (Human); [125I]-Via Antagonist; type: binding; conditions: read-out: Pass 1 (10^−5 M) % Inhibition
[3] = tested on: Cholecystokinin, CCK2 (CCKB); assay: Cholecystokinin, CCK2 (CCKB); [125I]CCK-8; type: binding; conditions: 10^−5 M
Neurokinin, NK2 (NKA) = molecular target: T2, Neurokinin, NK2 (NKA) (Homo sapiens, UniProt P21452); assay: biochemical; type: binding; conditions: read-out: Pass 1 (10^−5 M) % Inhibition
T2 construct: expressed in transfected cells

Galanin = assay: Galanin; [I125]Galanin; type: binding
Opiate, Delta 2 = molecular target: T3, Opiate, Delta 2 (Homo sapiens, UniProt P41143); assay: Opiate, Delta 2 (Human Recombinant); [3H]-Naltrindole; type: binding; conditions: read-out: Pass 1 (10^−5 M) % Inhibition
T3 construct: expressed in transfected cells

Serotonin, 5HT5A = molecular target: T4, Serotonin, 5HT5A (Homo sapiens, UniProt P47898); assay: biochemical; type: binding; conditions: read-out: Pass 1 (10^−5 M) % Inhibition
T4 construct: expressed in transfected cells

Serotonin, 5HT7 = molecular target: T5, Serotonin, 5HT7 (Homo sapiens, UniProt P34969); assay: biochemical; type: binding; conditions: read-out: Pass 1 (10^−5 M) % Inhibition
T5 construct: expressed in transfected cells

Opiate, Mu = Opiate, Mu (UniProt P33535); type: binding
Sequence of Opiate, Mu (P33535 whole entry): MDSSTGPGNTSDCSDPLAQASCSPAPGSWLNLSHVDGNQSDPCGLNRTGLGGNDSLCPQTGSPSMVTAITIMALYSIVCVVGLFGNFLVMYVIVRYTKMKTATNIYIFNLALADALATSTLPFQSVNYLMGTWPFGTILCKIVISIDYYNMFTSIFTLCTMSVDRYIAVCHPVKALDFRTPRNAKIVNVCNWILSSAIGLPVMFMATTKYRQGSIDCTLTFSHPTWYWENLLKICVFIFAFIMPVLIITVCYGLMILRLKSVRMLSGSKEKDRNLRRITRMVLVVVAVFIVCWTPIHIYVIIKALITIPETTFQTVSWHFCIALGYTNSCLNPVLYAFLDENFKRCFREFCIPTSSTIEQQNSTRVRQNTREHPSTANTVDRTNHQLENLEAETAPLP

Adenosine, A2 = Adenosine, A2 (UniProt P30543); assay: Adenosine, A2; [3H]CGS21680; type: binding
Acetylcholinesterase = assay: Acetylcholinesterase; substrate Acetylthiocholine; type: biochemical
Melatonin = assay: Melatonin; [125I]-2-Iodomelatonin; type: binding; conditions: 10^−5 M
[4] = molecular target: T6, Platelet Activating Factor, PAF (Oryctolagus cuniculus, UniProt G1TEI7); assay: Platelet Activating Factor, PAF; [3H]Hexadecyl, PAF; type: binding; conditions: read-out: Pass 1 (10^−5 M) % Inhibition
T6 construct: no other source notation after assay name denotes animal cell or animal tissue source; from tissue
T6 sequence (G1TEI7 entry or part of it): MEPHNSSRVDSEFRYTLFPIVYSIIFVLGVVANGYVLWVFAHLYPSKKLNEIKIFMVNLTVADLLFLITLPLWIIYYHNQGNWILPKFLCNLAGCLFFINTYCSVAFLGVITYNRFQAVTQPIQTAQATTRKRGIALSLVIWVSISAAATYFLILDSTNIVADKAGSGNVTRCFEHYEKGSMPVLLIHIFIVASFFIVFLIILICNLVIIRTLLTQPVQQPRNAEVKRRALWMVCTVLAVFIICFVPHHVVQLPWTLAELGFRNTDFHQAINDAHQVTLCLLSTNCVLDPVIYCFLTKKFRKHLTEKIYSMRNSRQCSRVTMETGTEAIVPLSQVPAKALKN

Histamine, H1 = molecular target: T7, Histamine, H1 (Bos taurus, UniProt P30546); assay: Histamine, H1; [3H]Pyrilamine; type: binding; conditions: read-out: Pass 1 (10^−5 M) % Inhibition
T7 construct: no other source notation after assay name denotes animal cell or animal tissue source; from tissue; host or cells: animal cell or animal tissue, not specified

Dopamine, D4.4 = molecular target: T8, Dopamine, D4.4 (Homo sapiens, UniProt P21917); assay: biochemical; type: binding; conditions: read-out: Pass 1 (10^−5 M) % Inhibition
T8 construct: expressed in transfected cells

Elastase = molecular target: T9, Elastase (Homo sapiens, UniProt P08246); assay: Elastase (Human); substrate MeO-Suc-Ala-Ala-Pro-Val-pNA; type: biochemical; conditions: read-out: Pass 1 (10^−5 M) % Inhibition
T9 construct: from human cell lines; endogenous in cells

Adrenergic, Alpha 1B = Adrenergic, Alpha 1B (UniProt P15823); assay: Adrenergic, Alpha 1B; [3H]-7-MeOxy-Prazosin; type: binding
Sequence of Adrenergic, Alpha 1B (P15823 whole entry): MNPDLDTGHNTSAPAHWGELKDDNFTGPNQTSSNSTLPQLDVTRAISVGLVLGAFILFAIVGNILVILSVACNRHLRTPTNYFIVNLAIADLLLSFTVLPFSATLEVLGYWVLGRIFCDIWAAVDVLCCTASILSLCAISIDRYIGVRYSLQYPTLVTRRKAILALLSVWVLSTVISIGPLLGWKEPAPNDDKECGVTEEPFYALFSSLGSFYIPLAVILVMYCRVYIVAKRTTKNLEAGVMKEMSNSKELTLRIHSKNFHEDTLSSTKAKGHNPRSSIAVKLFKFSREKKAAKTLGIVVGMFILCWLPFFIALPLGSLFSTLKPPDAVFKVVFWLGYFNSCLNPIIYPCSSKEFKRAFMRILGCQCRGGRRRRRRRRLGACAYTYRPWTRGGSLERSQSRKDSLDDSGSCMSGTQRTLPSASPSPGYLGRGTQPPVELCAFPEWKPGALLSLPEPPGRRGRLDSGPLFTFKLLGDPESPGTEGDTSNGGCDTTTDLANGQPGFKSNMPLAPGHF

[5] = tested on: GABA, Chloride, TBOB Site; type: binding
[6] = tested on: Cholecystokinin, CCK1 (CCKA); assay: Cholecystokinin, CCK1 (CCKA); [125I]CCK-8; type: binding; conditions: 10^−5 M
Opiate, Kappa = molecular target: T10, Opiate, Kappa (Homo sapiens, UniProt P41145); assay: biochemical; type: binding; conditions: read-out: Pass 1 (10^−5 M) % Inhibition
T10 construct: expressed in transfected cells
T10 sequence (P41145 whole entry): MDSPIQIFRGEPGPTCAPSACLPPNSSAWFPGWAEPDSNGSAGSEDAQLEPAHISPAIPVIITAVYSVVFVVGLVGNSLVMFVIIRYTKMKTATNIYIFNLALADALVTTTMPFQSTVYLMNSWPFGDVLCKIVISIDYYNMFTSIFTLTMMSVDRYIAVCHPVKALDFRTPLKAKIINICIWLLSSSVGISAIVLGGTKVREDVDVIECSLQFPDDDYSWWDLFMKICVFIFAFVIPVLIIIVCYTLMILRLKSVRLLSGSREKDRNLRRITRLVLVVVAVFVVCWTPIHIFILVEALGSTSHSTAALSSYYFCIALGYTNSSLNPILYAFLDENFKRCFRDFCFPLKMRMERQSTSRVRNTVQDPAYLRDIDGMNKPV

Progesterone = Progesterone (Bos taurus, UniProt F1N712); assay: Progesterone; [3H]Promegestone; type: binding; conditions: read-out: Pass 1 (10^−5 M) % Inhibition
Sequence of Progesterone (F1N712 entry or part of it): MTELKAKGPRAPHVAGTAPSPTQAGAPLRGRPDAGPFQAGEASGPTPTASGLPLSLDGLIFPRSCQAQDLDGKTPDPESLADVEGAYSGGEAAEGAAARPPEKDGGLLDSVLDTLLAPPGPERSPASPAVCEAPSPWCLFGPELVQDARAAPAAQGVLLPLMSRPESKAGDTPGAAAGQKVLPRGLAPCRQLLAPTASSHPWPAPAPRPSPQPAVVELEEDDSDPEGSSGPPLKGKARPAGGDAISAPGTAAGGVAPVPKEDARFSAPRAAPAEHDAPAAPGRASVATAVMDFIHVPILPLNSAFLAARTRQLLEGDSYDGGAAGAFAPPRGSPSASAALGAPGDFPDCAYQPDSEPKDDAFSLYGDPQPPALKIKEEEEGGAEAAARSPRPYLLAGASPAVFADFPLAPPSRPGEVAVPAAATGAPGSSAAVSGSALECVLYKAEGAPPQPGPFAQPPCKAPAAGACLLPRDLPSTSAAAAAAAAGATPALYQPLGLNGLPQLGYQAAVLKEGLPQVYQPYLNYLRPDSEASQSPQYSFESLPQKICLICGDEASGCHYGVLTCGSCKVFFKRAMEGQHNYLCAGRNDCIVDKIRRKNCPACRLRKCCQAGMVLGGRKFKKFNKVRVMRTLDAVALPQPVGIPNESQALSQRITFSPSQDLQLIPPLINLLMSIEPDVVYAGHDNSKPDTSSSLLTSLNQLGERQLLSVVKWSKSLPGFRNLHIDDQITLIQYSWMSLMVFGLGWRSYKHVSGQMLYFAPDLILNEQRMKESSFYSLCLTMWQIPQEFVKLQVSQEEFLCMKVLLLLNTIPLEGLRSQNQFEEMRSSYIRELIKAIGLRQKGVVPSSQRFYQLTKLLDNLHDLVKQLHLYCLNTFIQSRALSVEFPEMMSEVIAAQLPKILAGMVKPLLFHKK

Dopamine, D3 = molecular target: T11, Dopamine, D3 (Rattus norvegicus, UniProt P19020); assay: Dopamine, D3 (Rat Recombinant); [3H]7-OH-DPAT; type: binding; conditions: read-out: Pass 1 (10^−5 M) % Inhibition
T11 construct: expressed in transfected cells

[7] = tested on: Vasoactive Intestine Peptide, Non-selective; type: binding; conditions: 10^−5 M
GABA Transport = type: biochemical; conditions: 10^−5 M
Muscarinic, M3 = Muscarinic, M3 (Homo sapiens, UniProt P20309); assay: biochemical; conditions: read-out: Pass 1 (10^−5 M) % Inhibition
Sequence of Muscarinic, M3 (P20309 whole entry): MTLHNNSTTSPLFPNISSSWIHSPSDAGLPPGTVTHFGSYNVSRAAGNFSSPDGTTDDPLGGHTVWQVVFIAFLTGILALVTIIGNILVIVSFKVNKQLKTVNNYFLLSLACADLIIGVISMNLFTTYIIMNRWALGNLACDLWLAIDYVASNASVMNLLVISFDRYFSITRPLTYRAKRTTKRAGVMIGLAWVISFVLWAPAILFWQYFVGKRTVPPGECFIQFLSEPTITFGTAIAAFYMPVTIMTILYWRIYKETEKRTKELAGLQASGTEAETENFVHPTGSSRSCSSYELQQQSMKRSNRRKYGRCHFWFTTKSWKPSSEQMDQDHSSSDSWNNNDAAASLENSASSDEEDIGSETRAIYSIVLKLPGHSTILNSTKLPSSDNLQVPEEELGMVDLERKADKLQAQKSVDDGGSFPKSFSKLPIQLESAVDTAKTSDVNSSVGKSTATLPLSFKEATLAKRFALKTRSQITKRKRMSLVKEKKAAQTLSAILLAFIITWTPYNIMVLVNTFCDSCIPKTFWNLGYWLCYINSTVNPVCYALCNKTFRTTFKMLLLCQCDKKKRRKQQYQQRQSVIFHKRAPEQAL

Adrenergic, Alpha 1A = Adrenergic, Alpha 1A (UniProt P43140); assay: Adrenergic, Alpha 1A; [3H]-7-MeOxy-Prazosin; type: binding
Sodium, Site 2 = type: binding
GABA-B = type: binding
Serotonin, 5HT1A = Serotonin, 5HT1A (Homo sapiens, UniProt P08908); assay: biochemical; type: binding; conditions: read-out: Pass 1 (10^−5 M) % Inhibition
[8] = molecular target: Benzodiazepine, peripheral (Homo sapiens, UniProt P30536); assay: biochemical; type: binding; conditions: read-out: Pass 1 (10^−5 M) % Inhibition
GABA Transaminase = assay: GABA Transaminase; substrate [14C]-GABA; type: biochemical
Angiotensin II, ATI = Angiotensin II, ATI (Homo sapiens, UniProt P30556); assay: Angiotensin II, ATI (Human); [125I]-(Sar1-Ile8) Angiotensin; type: binding; conditions: read-out: Pass 1 (10^−5 M) % Inhibition
Thromboxane A2 = molecular target: T12, Thromboxane A2 (Homo sapiens, UniProt P21731); assay: Thromboxane A2 (Human); [3H]SQ 29,548; type: binding; conditions: read-out: Pass 1 (10^−5 M) % Inhibition
T12 construct: from human cell lines; endogenous in cells

[9] = tested on: Choline Acetyltransferase; assay: Choline Acetyltransferase; substrate [14C]Acetyl Coenzyme; type: biochemical; conditions: 10^−5 M
Dopamine, D5 = molecular target: T13, Dopamine, D5 (Homo sapiens, UniProt P21918); assay: biochemical; type: binding; conditions: read-out: Pass 1 (10^−5 M) % Inhibition
T13 construct: expressed in transfected cells
T13 sequence (P21918 whole entry): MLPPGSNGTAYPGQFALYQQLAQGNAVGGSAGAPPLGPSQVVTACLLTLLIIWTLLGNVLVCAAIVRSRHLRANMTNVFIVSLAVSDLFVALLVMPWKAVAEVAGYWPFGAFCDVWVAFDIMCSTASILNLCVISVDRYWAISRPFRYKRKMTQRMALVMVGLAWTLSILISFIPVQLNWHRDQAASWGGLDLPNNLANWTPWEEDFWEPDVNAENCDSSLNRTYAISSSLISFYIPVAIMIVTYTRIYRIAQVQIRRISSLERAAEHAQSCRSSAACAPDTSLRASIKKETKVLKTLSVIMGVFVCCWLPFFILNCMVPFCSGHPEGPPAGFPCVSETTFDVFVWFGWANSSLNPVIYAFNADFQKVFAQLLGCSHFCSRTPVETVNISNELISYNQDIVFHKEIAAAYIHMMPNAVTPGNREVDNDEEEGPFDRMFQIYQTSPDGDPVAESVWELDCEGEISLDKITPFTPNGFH

[10] = molecular target: T14, Monoamine Oxidase B, Peripheral (Rattus norvegicus, UniProt P19643); assay: Monoamine Oxidase B, Peripheral; substrate [14C]Phenylethylamine; type: biochemical; conditions: read-out: Pass 1 (10^−5 M) % Inhibition
T14 construct: no other source notation after assay name denotes animal cell or animal tissue source; from tissue

Serotonin Transporter = Serotonin Transporter (Homo sapiens, UniProt P31645); assay: biochemical; conditions: read-out: Pass 1 (10^−5 M) % Inhibition
Sequence of Serotonin Transporter (P31645 whole entry): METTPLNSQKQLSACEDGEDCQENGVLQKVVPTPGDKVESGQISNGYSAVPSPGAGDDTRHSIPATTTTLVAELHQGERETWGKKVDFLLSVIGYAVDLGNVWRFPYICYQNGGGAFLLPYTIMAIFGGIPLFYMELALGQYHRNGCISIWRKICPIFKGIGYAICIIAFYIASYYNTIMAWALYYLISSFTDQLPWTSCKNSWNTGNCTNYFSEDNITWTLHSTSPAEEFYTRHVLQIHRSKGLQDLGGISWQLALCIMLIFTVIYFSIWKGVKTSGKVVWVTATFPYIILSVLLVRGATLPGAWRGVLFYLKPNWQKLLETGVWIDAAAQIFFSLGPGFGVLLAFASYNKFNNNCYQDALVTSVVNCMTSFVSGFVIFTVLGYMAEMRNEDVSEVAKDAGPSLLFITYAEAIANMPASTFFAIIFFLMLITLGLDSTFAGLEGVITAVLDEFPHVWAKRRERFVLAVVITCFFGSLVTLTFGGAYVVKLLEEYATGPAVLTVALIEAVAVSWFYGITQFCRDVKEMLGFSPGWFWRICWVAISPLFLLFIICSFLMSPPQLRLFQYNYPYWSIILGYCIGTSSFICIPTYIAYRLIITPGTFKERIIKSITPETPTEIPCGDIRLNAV

Oxytocin = type: binding; conditions: 10^−5 M
Adenosine, A1 = Adenosine, A1 (UniProt P25099); assay: Adenosine, A1; [3H]CPX; type: binding; conditions: 10^−5 M
Sequence of Adenosine, A1 (P25099 whole entry, looked up): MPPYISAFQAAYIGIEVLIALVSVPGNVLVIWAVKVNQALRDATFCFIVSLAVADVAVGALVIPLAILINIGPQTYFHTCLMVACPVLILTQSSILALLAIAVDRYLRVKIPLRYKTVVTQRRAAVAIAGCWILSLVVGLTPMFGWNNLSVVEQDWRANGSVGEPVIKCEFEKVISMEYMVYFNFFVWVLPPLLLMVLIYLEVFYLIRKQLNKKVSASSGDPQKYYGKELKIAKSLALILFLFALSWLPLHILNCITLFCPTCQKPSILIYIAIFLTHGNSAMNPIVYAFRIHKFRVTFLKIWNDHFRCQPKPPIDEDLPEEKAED

T1 sequence (P30560 whole entry): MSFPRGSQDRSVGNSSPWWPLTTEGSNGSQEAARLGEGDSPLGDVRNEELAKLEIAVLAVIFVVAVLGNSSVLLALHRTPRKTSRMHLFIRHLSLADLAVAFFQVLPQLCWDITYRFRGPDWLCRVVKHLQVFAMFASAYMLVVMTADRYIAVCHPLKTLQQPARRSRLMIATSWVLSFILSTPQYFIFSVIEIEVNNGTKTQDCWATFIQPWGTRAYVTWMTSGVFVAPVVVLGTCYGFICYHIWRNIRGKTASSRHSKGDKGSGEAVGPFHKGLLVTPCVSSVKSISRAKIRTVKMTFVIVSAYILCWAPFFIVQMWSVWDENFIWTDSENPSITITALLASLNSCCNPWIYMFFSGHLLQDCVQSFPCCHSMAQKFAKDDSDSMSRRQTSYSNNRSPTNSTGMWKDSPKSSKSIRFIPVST

SMILES: COC(=O)[C@H]1[C@@H](OC(=O)c2ccccc2)C[C@@H]2CC[C@H]1N2C [cocaine]
- inhibition at 10 µM (Vasopressin 1): 0.98%
- Pass 1 (10^−5 M) % Inhibition (Testosterone (cytosolic)): −7.60%
- Pass 1 (10^−5 M) % Inhibition [1]: 12.28%
- Pass 1 (10^−5 M) % Inhibition [2]: 6.63%
- inhibition at 10 µM (Vasopressin, V1A): -4.37%
- Pass 1 (10^−5 M) % Inhibition [3]: −14.06%
- inhibition at 10 µM (Neurokinin, NK2 (NKA)): 13.7%
- Pass 1 (10^−5 M) % Inhibition (Galanin): −14.73%
- inhibition at 10 µM (Opiate, Delta 2): 21.5%
- inhibition at 10 µM (Serotonin, 5HT5A): 12%
- inhibition at 10 µM (Serotonin, 5HT7): 26.8%
- Pass 1 (10^−5 M) % Inhibition (Opiate, Mu): −4.22%
- Pass 1 (10^−5 M) % Inhibition (Adenosine, A2): 26.30%
- Pass 1 (10^−5 M) % Inhibition (Acetylcholinesterase): 8.18%
- Pass 1 (10^−5 M) % Inhibition (Melatonin): 16.13%
- inhibition at 10 µM [4]: 12.6%
- inhibition at 10 µM (Histamine, H1): -19.7%
- inhibition at 10 µM (Dopamine, D4.4): 18.8%
- inhibition at 10 µM (Elastase): -11.2%
- Pass 1 (10^−5 M) % Inhibition (Adrenergic, Alpha 1B): −6.30%
- Pass 1 (10^−5 M) % Inhibition [5]: 8.40%
- Pass 1 (10^−5 M) % Inhibition [6]: 11.15%
- inhibition at 10 µM (Opiate, Kappa): 1.87%
- inhibition at 10 µM (Progesterone): -10.9%
- inhibition at 10 µM (Dopamine, D3): 30.2%
- Pass 1 (10^−5 M) % Inhibition [7]: 30.71%
- Pass 1 (10^−5 M) % Inhibition (GABA Transport): −19.43%
- inhibition at 10 µM (Muscarinic, M3): -8.07%
- Pass 1 (10^−5 M) % Inhibition (Adrenergic, Alpha 1A): −1.18%
- Pass 1 (10^−5 M) % Inhibition (Sodium, Site 2): 36.80%
- Pass 1 (10^−5 M) % Inhibition (GABA-B): 24.90%
- inhibition at 10 µM (Serotonin, 5HT1A): 7.63%
- inhibition at 10 µM [8]: 0.51%
- Pass 1 (10^−5 M) % Inhibition (GABA Transaminase): 25.43%
- inhibition at 10 µM (Angiotensin II, ATI): 21.2%
- inhibition at 10 µM (Thromboxane A2): 22.1%
- Pass 1 (10^−5 M) % Inhibition [9]: 8.25%
- inhibition at 10 µM (Dopamine, D5): 2.44%
- inhibition at 10 µM [10]: -22.8%
- inhibition at 10 µM (Serotonin Transporter): 97.5%
- Pass 1 (10^−5 M) % Inhibition (Oxytocin): −4.65%
- Pass 1 (10^−5 M) % Inhibition (Adenosine, A1): 2.29%
